We go through 18 molecules from patent US9725465B2, “Biaryl acetamide compounds and methods of use thereof” (Ambit Biosciences Corporation, priority 2013, dated 2017).

Test [1] addresses KIT kinase (Homo sapiens (Human), UniProt P10721). As to the kind of experiment: Competition binding assay (Kd), KIT. Here is the method:
In certain embodiments, competition binding assays were performed as described in Fabian et al., Nature Biotechnology 2005, 23, 329-336.
Competition binding assays used herein were developed, validated and performed as described in Fabian et al., Nature Biotechnology 2005, 23, 329-336. Kinases were produced as fusions to T7 phage (See, Fabian et al. or WO04/015142) or alternatively, the kinases were expressed in HEK-293 cells and subsequently tagged with DNA for PCR detection (See, WO08/005,310). […] The liganded beads were blocked with excess biotin and washed with blocking buffer (SeaBlock (Pierce), 1% BSA, 0.05% Tween 20, 1 mM DTT) to remove unbound ligand and to reduce non-specific binding. […] Test compounds were prepared as 100× stocks in DMSO and diluted into the aqueous environment. Kds were determined using an eleven point threefold serial dilutions. DMSO or control compounds were was added to control assays lacking a test compound. […] The kinase concentration in the eluates was measured by quantitative PCR. […]

The target of test [2] is FLT3 kinase (Homo sapiens (Human), UniProt P36888). Nature of the test: Competition binding assay (Kd), FLT3.
Sequence of FLT3 kinase (P36888 27-993): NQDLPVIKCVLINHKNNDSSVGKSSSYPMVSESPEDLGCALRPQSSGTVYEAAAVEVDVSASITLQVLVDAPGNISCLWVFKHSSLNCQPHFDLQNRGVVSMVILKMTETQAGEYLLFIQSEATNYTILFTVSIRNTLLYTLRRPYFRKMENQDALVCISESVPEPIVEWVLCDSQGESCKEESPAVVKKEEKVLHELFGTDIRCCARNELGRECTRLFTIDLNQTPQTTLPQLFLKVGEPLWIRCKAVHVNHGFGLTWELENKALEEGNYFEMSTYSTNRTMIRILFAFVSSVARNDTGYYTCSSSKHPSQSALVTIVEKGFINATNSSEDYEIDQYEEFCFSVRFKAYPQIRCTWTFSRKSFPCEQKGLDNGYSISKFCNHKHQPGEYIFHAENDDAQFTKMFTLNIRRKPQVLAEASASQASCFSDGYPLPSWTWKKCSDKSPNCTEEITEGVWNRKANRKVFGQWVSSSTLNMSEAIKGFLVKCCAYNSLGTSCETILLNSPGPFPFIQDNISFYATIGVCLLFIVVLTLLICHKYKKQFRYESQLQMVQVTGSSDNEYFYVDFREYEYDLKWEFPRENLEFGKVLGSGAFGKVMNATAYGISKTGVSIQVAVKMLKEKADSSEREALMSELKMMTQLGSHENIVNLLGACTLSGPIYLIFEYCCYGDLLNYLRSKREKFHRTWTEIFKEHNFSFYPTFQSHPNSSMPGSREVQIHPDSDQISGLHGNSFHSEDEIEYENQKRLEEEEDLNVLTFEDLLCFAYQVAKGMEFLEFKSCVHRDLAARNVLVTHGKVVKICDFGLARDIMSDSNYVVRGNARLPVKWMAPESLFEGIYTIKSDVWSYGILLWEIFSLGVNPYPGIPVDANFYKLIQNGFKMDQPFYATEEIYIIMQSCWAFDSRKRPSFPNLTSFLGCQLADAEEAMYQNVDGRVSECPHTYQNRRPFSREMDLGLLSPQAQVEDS

Each structure is given as a SMILES string. pKd: −log10 of the molar value.

Sequence of KIT kinase (P10721 26-976): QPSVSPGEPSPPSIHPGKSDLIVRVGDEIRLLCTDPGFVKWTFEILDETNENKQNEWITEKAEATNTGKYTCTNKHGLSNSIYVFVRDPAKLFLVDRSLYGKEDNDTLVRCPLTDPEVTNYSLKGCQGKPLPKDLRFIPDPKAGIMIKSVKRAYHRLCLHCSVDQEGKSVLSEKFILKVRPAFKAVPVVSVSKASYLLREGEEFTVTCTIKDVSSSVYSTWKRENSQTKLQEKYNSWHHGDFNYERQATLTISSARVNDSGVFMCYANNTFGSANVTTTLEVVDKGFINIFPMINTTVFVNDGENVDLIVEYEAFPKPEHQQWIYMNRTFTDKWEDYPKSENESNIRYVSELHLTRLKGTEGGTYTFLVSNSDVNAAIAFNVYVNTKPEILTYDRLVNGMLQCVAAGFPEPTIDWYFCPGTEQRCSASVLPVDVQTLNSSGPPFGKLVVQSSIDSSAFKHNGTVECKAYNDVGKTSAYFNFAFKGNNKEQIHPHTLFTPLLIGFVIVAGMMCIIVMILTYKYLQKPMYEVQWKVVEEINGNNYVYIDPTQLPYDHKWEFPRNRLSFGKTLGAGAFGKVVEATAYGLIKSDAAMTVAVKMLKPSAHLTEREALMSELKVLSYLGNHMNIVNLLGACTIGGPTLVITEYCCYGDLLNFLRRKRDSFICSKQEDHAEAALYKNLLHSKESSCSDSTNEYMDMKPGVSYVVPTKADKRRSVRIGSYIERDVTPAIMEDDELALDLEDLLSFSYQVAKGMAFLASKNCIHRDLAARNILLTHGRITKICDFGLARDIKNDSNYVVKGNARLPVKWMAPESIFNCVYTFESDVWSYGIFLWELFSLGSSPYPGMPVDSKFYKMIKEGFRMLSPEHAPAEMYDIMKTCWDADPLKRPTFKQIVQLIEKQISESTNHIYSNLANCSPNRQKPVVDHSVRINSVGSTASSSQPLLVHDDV

As a reminder, the pKd is −log10 of the Kd, conventionally taken in molar units. A higher pKd goes with a small Kd. As to `COc1cc2nc(-c3ccc(CC(=O)Nc4cc(C(C)(C)C(F)(F)F)on4)c(F)c3)cnc2cc1OCC(C)(C)O` [Example 246, 2-[2-fluoro-4-[6-(2-hydroxy-2-methyl-propoxy)-7-methoxy-quinoxalin-2-yl]phenyl]-N-[5-(2,2,2-trifluoro-1,1-dimethyl-ethyl)isoxazol-3-yl]acetamide], the pKd in test [1] (competition binding) and in test [2] (competition binding) was > 8.30 each time. `COc1cc2nc(-c3ccc(CC(=O)Nc4cc(C5(C(F)(F)F)CC5)on4)c(F)c3)cnc2cc1OCCCO` [Example 195, 2-[2-fluoro-4-[6-(3-hydroxypropoxy)-7-methoxy-quinoxalin-2-yl]phenyl]-N-[5-[1-(trifluoromethyl)cyclo-propyl]isoxazol-3-yl]acetamide]: the pKd in test [1] (competition binding) and in test [2] (competition binding) was > 8.30 throughout. For the molecule `COc1cc2ncc(-c3ccc(CC(=O)Nc4cc(C5(C(F)(F)F)CC5)on4)c(F)c3)nc2cc1OCC(C)(C)O` [Example 239, 2-[2-fluoro-4-[7-(2-hydroxy-2-methyl-propoxy)-6-methoxy-quinoxalin-2-yl]phenyl]-N-[5-[1-(trifluoro-methyl)cyclopropyl]isoxazol-3-yl]acetamide], the pKd in test [1] (competition binding) and in test [2] (competition binding) was > 8.30 each time. In the case of `COc1cc2ncc(-c3ccc(CC(=O)Nc4cc(C5(C(F)(F)F)CC5)on4)c(F)c3)nc2cc1OC[C@@H](C)O` [Example 202, 2-[2-fluoro-4-[7-[(2R)-2-hydroxypropoxy]-6-methoxy-quinoxalin-2-yl]phenyl]-N-[5-[1-(trifluoromethyl)cyclo-propyl]isoxazol-3-yl]acetamide], the pKd in test [1] (competition binding) and in test [2] (competition binding) was > 8.30 each time.

Regarding `COc1cc2ncc(-c3ccc(CC(=O)Nc4cc(C(C)(C)C(F)(F)F)on4)c(F)c3)nc2cc1O` [Example 184, 2-[2-fluoro-4-(7-hydroxy-6-methoxy-quinoxalin-2-yl)phenyl]-N-[5-(2,2,2-trifluoro-1,1-dimethyl-ethyl)isoxazol-3-yl]acetamide], the pKd in test [1] (competition binding assay) and in test [2] (competition binding assay) was > 8.30 in each case. For the molecule `COc1cc2nc(-c3ccc(CC(=O)Nc4cc(C(C)(C)C(F)(F)F)on4)c(F)c3)cnc2cc1OCCn1cnnc1` [Example 211, 2-[2-fluoro-4-[7-methoxy-6-[2-(1,2,4-triazol-4-yl)ethoxy]quinoxalin-2-yl]phenyl]-N-[5-(2,2,2-trifluoro-1,1-dimethyl-ethyl)isoxazol-3-yl]acetamide], the pKd in test [1] (competition binding) and in test [2] (competition binding) was > 8.30 in each case. Take `COc1cc2nc(-c3ccc(CC(=O)Nc4cc(C5(C(F)(F)F)CC5)on4)c(F)c3)cnc2cc1OCCn1cncn1` [Example 185, 2-[2-fluoro-4-[7-methoxy-6-[2-(1,2,4-triazol-1-yl)ethoxy]quinoxalin-2-yl]phenyl]-N-[5-[1-(trifluoro-methyl)cyclopropyl]isoxazol-3-yl]acetamide]: the negative logarithm of the Kd (pKd) in test [1] (competition binding) and in test [2] (competition binding) was > 8.30 each time. Turning to `COc1cc2ncc(-c3ccc(CC(=O)Nc4cc(C5(C(F)(F)F)CC5)on4)c(F)c3)cc2cc1OCCN1CCOCC1` [Example 190, 2-[2-fluoro-4-[7-methoxy-6-(2-morpholinoethoxy)-3-quinolyl]phenyl]-N-[5-[1-(trifluoromethyl)cyclo-propyl]isoxazol-3-yl]acetamide], the pKd in test [1] (competition binding) and in test [2] (competition binding) was > 8.30 throughout. Regarding `COc1cc2ncc(-c3cc(F)c(CC(=O)Nc4cc(C5(C(F)(F)F)CC5)on4)cc3F)nc2cc1OC` [Example 218, 2-[4-(6,7-dimethoxyquinoxalin-2-yl)-2,5-difluoro-phenyl]-N-[5-[1-(trifluoro-methyl)cyclopropyl]isoxazol-3-yl]acetamide], the pKd in test [1] (competition binding) and in test [2] (competition binding) was > 8.30 in each case. On to `COc1cc2ncc(-c3ccc(CC(=O)Nc4cc(C(C)(C)C(F)(F)F)nn4C)c(F)c3)nc2cc1OC` [Example 181, 2-[4-(6,7-dimethoxyquinoxalin-2-yl)-2-fluoro-phenyl]-N-[2-methyl-5-(2,2,2-trifluoro-1,1-dimethyl-ethyl)pyrazol-3-yl]acetamide], for which the pKd in test [1] (competition binding assay) and in test [2] (competition binding assay) was > 8.30 each time.

`COc1cc2ncc(-c3cc(F)c(CC(=O)Nc4cc(C(C)(C)C(F)(F)F)on4)c(F)c3)nc2cc1OC` [Example 225, 2-[4-(6,7-dimethoxyquinoxalin-2-yl)-2,6-difluoro-phenyl]-N-[5-(2,2,2-trifluoro-1,1-dimethyl-ethyl)isoxazol-3-yl]acetamide]: the pKd in test [1] (competition binding) and in test [2] (competition binding) was > 8.30 each time.

On to `COc1cc2nc(-c3ccc(CC(=O)Nc4cc(C5(C(F)(F)F)CC5)on4)c(F)c3)cnc2cc1OCCCN1CCOCC1` [Example 212, 2-[2-fluoro-4-[7-methoxy-6-(3-morpholino-propoxy)quinoxalin-2-yl]phenyl]-N-[5-[1-(trifluoro-methyl)cyclopropyl]isoxazol-3-yl]acetamide], for which the pKd in test [1] (competition binding) and in test [2] (competition binding) was > 8.30 in each case. On to `COc1cc2nc(-c3ccc(CC(=O)Nc4cc(C5(C(F)(F)F)CC5)on4)c(F)c3)cnc2cc1Br` [Example 83, 2-(4-(6-bromo-7-methoxyquinoxalin-2-yl)-2-fluorophenyl)-N-(5-(1-(trifluoromethyl)cyclopropyl)isoxazol-3-yl)acetamide], for which the pKd in test [1] (competition binding assay) and in test [2] (competition binding assay) was > 8.30 in each case. As to `COc1cc2nc(-c3ccc(CC(=O)Nc4cc(C5(C(F)(F)F)CC5)on4)c(F)c3)cnc2cc1OCCN1CCOCC1(C)C` [Example 96, 2-(4-(6-(2-(3,3-dimethylmorpholino)ethoxy)-7-methoxyquinoxalin-2-yl)-2-fluorophenyl)-N-(5-(1-(trifluoromethyl)cyclopropyl)isoxazol-3-yl)acetamide], the pKd in test [1] (competition binding assay) and in test [2] (competition binding assay) was > 8.30 throughout. As for `COc1cc2cc(-c3ccc(CC(=O)Nc4cc(C(C)(C)C(F)(F)F)on4)c(F)c3)cnc2cc1OCCNCCO` [Example 201, 2-[2-fluoro-4-[7-[2-(2-hydroxyethylamino)ethoxy]-6-methoxy-3-quinolyl]phenyl]-N-[5-(2,2,2-trifluoro-1,1-dimethyl-ethyl)isoxazol-3-yl]acetamide], the pKd in test [1] (competition binding) and in test [2] (competition binding) was > 8.30 throughout. `COc1cc2ncc(-c3ccc(CC(=O)Nc4cc(C(C)(C)C(F)(F)F)on4)c(F)c3)nc2cc1OCCN(C)C(C)=O` [Example 198, 2-[4-[7-[2-[acetyl(methyl)amino]ethoxy]-6-methoxy-quinoxalin-2-yl]-2-fluoro-phenyl]-N-[5-(2,2,2-trifluoro-1,1-dimethyl-ethyl)isoxazol-3-yl]acetamide]: the pKd in test [1] (competition binding) and in test [2] (competition binding) was > 8.30 throughout.

As to `COc1cc2nc(-c3ccc(CC(=O)Nc4cc(C(C)(C)C(F)(F)F)on4)c(F)c3)cnc2cc1OCCN1CCOCC1` [Example 171, 2-[2-fluoro-4-[7-methoxy-6-(2-morpholino-ethoxy)quinoxalin-2-yl]phenyl]-N-[5-(2,2,2-trifluoro-1,1-dimethyl-ethyl)isoxazol-3-yl]acetamide], the pKd in test [1] (competition binding assay) is > 8.30.

As for `COc1cc2nc(-c3ccc(CC(=O)Nc4cc(C(C)(C)C)on4)c(F)c3)cnc2cc1OCCN1CCOCC1` [Example 92, N-(5-(tert-butyl)isoxazol-3-yl)-2-(2-fluoro-4-(7-methoxy-6-(2-morpholinoethoxy)quinoxalin-2-yl)phenyl)acetamide], in test [1] (competition binding assay), the pKd is > 8.30.
